Entries after “also recorded” stand apart in the source; their conditions may differ. Where two headings read alike, the source gives them in different places.
Columns and labels:
NF-κB = test: TPA-induced NF-κB activation by EMSA in Jurkat cells; conditions: for IC90: read-out: NF-κB inhibition IC90, TPA 25 ng/ml; for TPA-induced NF-κB activation at 500 μM: 500 μM for 1 hour then TPA 25 ng/ml; for concentrations found to inhibit NF-κB activation: FIG. 10
Procedure: (§1) Three hours after treatment, whole cell extracts were prepared and analyzed by EMSA (Electrophoretic Mobility Shift Assay) as described in Amici et al., 1995, supra. After a 20 minute incubation at room temperature, HSF-HSE or NF-κB-DNA-complexes were analyzed by nondenaturing 4% polyacrylamide gel electrophoresis and autoradiography. The amount of shifted HSE probe and NF-κB probe, an indicator of HSF DNA-binding activity and NF-κB activity, respectively, were quantitated by Molecular Dynamics Phospholmager (MDP) analysis.
(§2) At different times or three hours after treatment, whole cell extracts were prepared and analyzed by EMSA (Electrophoretic Mobility Shift Assay) as described in Amici et al., 1995, supra. Briefly, extracts (10 μg/sample) were mixed with 0.1 ng of a ^32P-NF-κB element or ^32P—HSE oligonucleotide and 0.5 μg of poly(dI-dC) (Pharmacia Biotech Inc.) in 25 μl of binding buffer (10 nM Tris-Cl, pH 7.8, 50 mM NaCl, 1 mM EDTA, 0.5 mM dithiothreitol, 5% glycerol). After a 20 minute incubation at room temperature, HSF-HSE or NF-κB-DNA-complexes were analyzed by nondenaturing 4% polyacrylamide gel electrophoresis and autoradiography. The amount of shifted HSE probe and NF-κB probe, an indicator of HSF DNA-binding activity and NF-κB activity, respectively, were quantitated by Molecular Dynamics Phospholmager (MDP) analysis.
(§3) Jurkat cells were incubated with the compounds listed in Table 1 (infra) or reference diluent at different concentrations for 1 hour and then were stimulated with TPA (25 ng/ml). After 1 hour at 37° C. the whole-cell extracts were prepared and subjected to EMSA to determine NF-κB and HSF activation. The levels of binding-DNA activity of NF-κB were quantified with Molecular Dynamics Phosphorlmager analysis.

HSP70 [1] = test: HSP70 and total protein synthesis in K562 cells ([35S]-methionine); conditions: 500 μM
Procedure: K562 cells treated with 500 μM 2 cyclopenten-1-one for different times were pulse-labeled with L-[^35S]-methionine (10 μCi/10^6 cells) for 1 hour. Cells were washed with phosphate buffered saline (PBS) and lysed with 400 μl of lysis buffer (20 nM Tris-Ci, pH 7.4, 0.1 M NaCl, 5 mM MgCl2, 1% Nonidet P-40, 0.5% SDS) containing protease inhibitors. After cell lysis, the radioactivity incorporated into trichloroacetic acid-insoluble material was determined, and an aliquot of samples containing the same amount of radioactivity were analyzed by 10% SDS-PAGE and autoradiography. HSP70 synthesis was determined by densitometric analysis of the autoradiograms. Total protein synthesis was determined as [^35S]-methionine incorporation into TCA-insoluble material (Amici et al., 1993, Exp. Cell. Res. 207. 230-234).

[2] = test system: heat shock transcription factor (HSF); test: HSF activation by EMSA in K562 cells; conditions: 500 μM
Procedure: K562 human erythroleukemia cells, monolayers of monkey kidney cells (MA104 cells), and Jurkat cells were grown in RPMI 1640 medium supplemented with 10% fetal calf serum and antibiotics at 37° C. in a 5% CO2 humidified atmosphere (Amici et al., 1995, Cancer Research 55: 14452-4457).
At different times following 2-cyclopenten-1-one treatment or 3 hours following heat shock, whole cell extracts were prepared and analyzed by EMSA (Electrophoretic Mobility Shift Assay) as described in Amici et al., 1995, supra.

[3] = test system: vesicular stomatitis virus (VSV), Indiana serotype (Orsay); type: cell-based; conditions: MA104 cells
VSV proteins = type: cell-based, vesicular stomatitis virus; conditions: VSV-infected MA104 cells, [35S]-methionine, SDS-PAGE
HSP70 gene transcription = test: Transcription run-on assay in isolated K562 nuclei
Procedure: In vitro run-on transcription reactions were performed in isolated K562 nuclei as described in Banerji et al, 1984, Mol. Cell. […] The vector plasmid (pBluescript) was used as a non-specific hybridization control. Following hybridization, the filters were visualized by autoradiography and the radioactivity was quantitated by MDP analysis. The values are expressed as arbitrary units obtained by comparing transcription rates to control levels.

[4] = test system: heat shock transcription factor (HSF); test: HSF activation by EMSA in Jurkat cells; conditions: for HSF activation at 500 μM: 500 μM for 1 hour then TPA; for concentrations found to activate HSF: TPA 25 ng/ml, FIG. 10
Procedure: as §1, §2, §3

[5] = test system: HSP90 and HSP70 gene transcription; test: Transcription run-on assay in isolated Jurkat nuclei; type: cell-based, human
[6] = test system: Influenza A virus A/PR8/34 (H1N1) (PR8 virus); test: PR8 influenza virus replication in MDCK cells (HAU and CPE50%); type: cell-based
[7] = 10 μg/day/mouse i.p., for 4 days
[8] = test system: PR8 influenza virus proteins; type: cell-based, Influenza A virus
HSP70 [9] = test: Cellular and heat shock protein synthesis in MDCK cells; type: cell-based, canine
PR8 virus = test: Virus titer in the lungs of PR8-infected mice; type: in vivo, Balb/c mice; conditions: 10 μg/mouse/day i.p., four days after infection with 1 HAU PR8 virus/mouse
PR8 influenza virus = test: Survival and body weight of PR8-infected Balb/c mice; type: in vivo

In the case of `CC(=O)NC(Cc1ccccc1)C(=O)Oc1ccc2ccccc2c1` (racemic) [APNE, N-acethyl-DL-phenylalanine-β-napthylester], the IC90 (NF-κB) is reported as 300 µM.

In the case of `O=C1C=CCC1` [2-cyclopenten-1-one], the “HSP70 protein synthesis versus cellular protein synthesis” value (HSP70 [1]) is reported as “selectively stimulate HSP70 protein synthesis”, the “less activated HSF at 24 hours than at 9 hours after treatment” value [2] is reported as “Approximately 50%” and the “time after treatment at which activation of HSF was detected” value [2] is reported as 1.5 h. The “time after treatment of maximum levels of HSF activation” value [2] was 9 h, the “inhibition of production of VSV infectious particles with respect to control” value (from here on “inhibition of production … to control”) ([3]; 24 h p.i., lower end of 100-500 μM) was 10 times and the “inhibition of production … to control” value ([3]; 24 h p.i., upper end of 100-500 μM) was “more than 1000 times”. For the same compound, the “effect on VSV protein synthesis” value (VSV proteins) was “selective block of the viral protein synthesis”, the “HSP70 mRNA transcription by 24 hours after treatment” value (HSP70 gene transcription) was “decreased” and the “time after treatment at which HSP70 mRNA transcription was detected” value (HSP70 gene transcription) was 1.5 h. The “time after treatment at which HSP70 transcription rates were maximal” value (HSP70 gene transcription) was 6 to 9 h, the “transcription of other stress proteins (HSC70, GRP78/BiP, heme-oxygenase)” value (HSP70 gene transcription) was “not affected” and the “TPA-induced NF-κB activation at 500 μM” value (NF-κB) was “not detectable; also recorded: inhibits TPA-induced NF-κB activation”. For the same compound, the “lowest concentration inhibiting NF-κB activation by TPA” value (NF-κB; TPA 25 ng/ml) was 125 µM, the “HSF activation at 500 μM” value ([4]; EMSA) was “detected” and the “HSF activation at 125 μM” value ([4]; same samples as NF-κB EMSA) was “detectable”.

For `O=c1oc(Cl)c(Cl)c2ccccc12` [DCIC, 3,4-dichloro-iso-coumarine], the “inhibition of production … to control” value ([3]; lower end of 5-45 μM) was 50%, the “inhibition of production … to control” value ([3]; upper end of 5-45 μM) was “more than 98%” and the “effect on VSV protein synthesis” value (VSV proteins) was “selective block of the viral protein synthesis”. For the same compound, the “concentrations found to inhibit NF-κB activation” value (NF-κB; TPA 25 ng/ml) was 5 to 10 µM, the IC90 (NF-κB) was 5.5 µM and the “duration of HSF activation following initiation of treatment” value ([4]; 5 μM, EMSA) was 12 h. The “time after treatment at which activation of HSF was detected” value ([4]; 5 μM, EMSA) was 1 h, the “time after treatment of maximum levels of HSF activation” value ([4]; 5 μM, EMSA) was 3 h and the “concentrations found to activate HSF” value ([4]; EMSA) was 5 to 10 µM. For the same compound, the “HSP90 and HSP70 mRNA transcription by 24 hours after treatment” value [5] was “decreased”, the “selectivity of stress protein induction (HSP90, Grp78, HSC70, HSP70)” value [5] was “selectively induces the expression of HSP90 and HSP70” and the “time after treatment at which HSP90 and HSP70 mRNA transcription were detected” value [5] was 1 h. The “time after treatment at which HSP90 and HSP70 transcription rates were maximal” value [5] was “about 3 hours”.

For `CCCCC[C@H](O)/C=C/[C@H]1C=CC(=O)[C@@H]1CCCCCCC(=O)O` [PGA1, Prostaglandin A1], the “effect on PR8 virus replication, comparison of prostaglandins” value [6] was “only modestly and transiently inhibited” and the “decrease of PR8 virus yield up to 48 hours p.i.” value ([6]; MDCK cells, 10 μg/ml, data not shown) was “more than 90 % of control”.

In the case of `O=C1CCCC1` [cyclopentanone, reference compound], the “TPA-induced NF-κB activation at 500 μM” value (NF-κB) is reported as “do not inhibit NF-κB activation” and the “HSF activation at 500 μM” value ([4]; EMSA) is reported as “not detected”.

For `C1=CCCC1` [cyclopentene, reference compound], the “TPA-induced NF-κB activation at 500 μM” value (NF-κB) was “do not inhibit NF-κB activation” and the “HSF activation at 500 μM” value ([4]; EMSA) was “not detected”.

In the case of `CCCCCC(O)C/C=C1/C(=O)C=CC1C/C=C\CCCC(=O)O` (stereo not drawn) [Δ^12-PGJ2, 9-deoxy-Δ^9,Δ^12-13,14-dihydro-PGD2], the signs of toxicity [7] is reported as “did not show any sign of toxicity”, the “loss of body weight in infected animals” value ([7]; data not shown) is reported as “reduced” and the “uptake of precursors and DNA and RNA synthesis” value (MDCK cells) is reported as “did not inhibit either the uptake of precursors or DNA and RNA synthesis”. For the same compound, the “virus-induced inhibition of cellular RNA synthesis” value (MDCK cells) was “prevented”, the PR8 protein synthesis [8] was “dramatic reduction” and the “viral proteins by immunoblot analysis at 24 hours p.i.” value [8] was “not detectable”. For the same compound, the “PR8 virus yield at concentrations higher than 6 μg/ml” value [6] was “not detectable”, the “PR8 virus yield in HAU” value [6] was 0 HAU and the “effect on PR8 virus replication, comparison of prostaglandins” value [6] was “most effective cyclopentenone prostaglandin”. The infectious virus titer [6] was 3.2+0.6×10^1 CPE5O % units/ml, the “inhibition of PR8 virus production” value [6] was “greater than 95 % of control” and the “reduction of infectious virus titers” value [6] was “more than 99 % of control”. For the same compound, the “period for which antiviral activity is sustained” value ([6]; MDCK cells, 6 μg/ml) was “at least 72 hours p.i”, the “inhibition of PR8 virus replication up to 72 h p.i.” value ([6]; MDCK cells, single treatment with 6 μg/ml) was “more than 95%” and the “time after treatment at which HSP70 synthesis was detectable” value (HSP70 [9]) was 3 h. For the same compound, the “time for which HSP70 synthesis continued to be detectable” value (HSP70 [9]) was “at least 12 hours”, the “synthesis of HSP90” value (HSP70 [9]; MDCK cells, 6 μg/ml) was “enhanced” and the “synthesis of HSC70 and HSP70” value (HSP70 [9]; MDCK cells, 6 μg/ml, SDS-PAGE and immunoblot) was “markedly induced”. For the same compound, the “protein synthesis in uninfected cells” value (HSP70 [9]; uninfected MDCK cells, 6 μg/ml, 24 hours) was “modest reduction”, the “virus titer in the lungs” value (PR8 virus) was 0.07±0.03×10^4 CPE50% units/gr of lung tissue and the mouse survival (PR8 influenza virus; 1 μg/day/mouse i.p. for 7 days, FIG. 15A) was “no effect on mouse survival”. For the same compound, the “survival of the animals” value (PR8 influenza virus; 5 μg/day/mouse i.p. daily for 7 days, FIG. 15B) was 60%, the “mice survival on day 25 p.i.” value (PR8 influenza virus; 5 μg/day/mouse i.p. for 7 days, FIG. 15A) was 50% and the “survival of the animals” value (PR8 influenza virus; 5 μg/day/mouse i.p. on days 0, 2 and 4, FIG. 15B) was “approximately 30%”. For the same compound, the “body weight at 7 days p.i.” value (PR8 influenza virus; PR8-infected mice, 7-day treatment, 5 μg/day/mouse) was 18.25 ± 0.68 g.

For “Nα-tosyl-lysine-chloromethylketone [TLCK]”, the “concentrations found to inhibit NF-κB activation” value (NF-κB; TPA 25 ng/ml) was 30 to 75 µM, the IC90 (NF-κB) was 135 µM and the “concentrations found to activate HSF” value ([4]; EMSA) was 30 to 75 µM.

With “tosyl-L-phenylalanine-chloromethylketone [TPCK]” the “concentrations found to inhibit NF-κB activation” value (NF-κB; TPA 25 ng/ml) was 12.5 to 25 µM, the IC90 (NF-κB) was 12 µM and the “concentrations found to activate HSF” value ([4]; EMSA) was 12.5 to 25 µM.

From US20050020687A1, “Methods of treating inflammatory and viral disorders by administering cyclopentenone compounds” (priority 1996, published 2005)
